Assay results taken from ChEMBL document CHEMBL3217650, “Discovery of novel selective Sigma-1 ligands as cognitive enhancers” (Medchemcomm, 2011).
Converted amounts (≈) assume the structure as drawn. The source made the active and inactive calls. No cut-off for these calls is given here.

Legend:
Rattus norvegicus [1] = species: Rattus norvegicus; assay: Displacement of [3H]1,3-di-O-tolylguanidine from sigma-2 receptor in rat cerebral cortex at 10 uM relative to control; format: tissue-based
[2] = target: Sigma non-opioid intracellular receptor 1 (Homo sapiens, UniProt Q99720); assay: Displacement of [3H]-pentazocine from human recombinant sigma-1 receptor expressed in CHO cells after 180 mins by beta counting analysis; format: cell-based
[3] = Apparent permeability across apical to basolateral side in human Caco2 cells at 20 uM measured up to 3 hrs; format: ADME, cell-based; conditions: Caco-2
[4] = target: Acetylcholinesterase (Homo sapiens) (UniProt P22303); assay: Binding affinity to AChE (unknown origin) at 10 uM by displacement assay relative to control
[5] = Intrinsic clearance in rat liver microsomes measured per mg of protein; format: ADME; conditions: read-out: CLH
[6] = target: Mu-type opioid receptor (Homo sapiens) (UniProt P35372); assay: Binding affinity to mu opioid receptor (unknown origin) at 10 uM by displacement assay relative to control
[7] = Ratio of drug level in brain to plasma in C57BL6/J mouse at 1 mg/kg, ip measured at 40 mins; format: ADME, organism-based; set-up: dose 1 mg/kg, route intraperitoneal; conditions: brain and plasma, read-out: BPR
[8] = Intrinsic clearance in mouse liver microsomes measured per mg of protein; format: ADME; conditions: read-out: CLH
[9] = target: Kappa-type opioid receptor (Homo sapiens) (UniProt P41145); assay: Binding affinity to kappa opioid receptor (unknown origin) at 10 uM by displacement assay relative to control
Mus musculus [10] = assay: Antiamnesic activity in C57BL6/J mouse assessed as reduction of scopolamine-induced memory deficit at 0.03 to 1 mg/kg, ip administered 40 mins prior to acquisition trial by two-trial object recognition test; format: functional, organism-based
[11] = target: 5-hydroxytryptamine receptor 2A (Homo sapiens) (UniProt P28223); assay: Binding affinity to 5HT-2a receptor (unknown origin) at 10 uM by displacement assay relative to control
[12] = target: D(3) dopamine receptor (Homo sapiens) (UniProt P35462); assay: Binding affinity to dopamine D3 receptor (unknown origin) at 10 uM by displacement assay relative to control
[13] = target: D(4) dopamine receptor (Homo sapiens) (UniProt P21917); assay: Binding affinity to dopamine D4 receptor (unknown origin) at 10 uM by displacement assay relative to control
[14] = target: Adrenergic receptor alpha-1 (Homo sapiens) (UniProt P35348+P25100+P35368); assay: Binding affinity to adrenergic alpha-1 receptor (unknown origin) at 10 uM by displacement assay relative to control; format: protein assay
[15] = target: D(2) dopamine receptor (Homo sapiens) (UniProt P14416); assay: Binding affinity to dopamine D2 receptor (unknown origin) at 10 uM by displacement assay relative to control
[16] = target: T1, Alpha-2C adrenergic receptor (Homo sapiens) (UniProt P18825); assay: Binding affinity to adrenergic alpha-2c receptor (unknown origin) at 10 uM by displacement assay relative to control
T1 sequence (whole entry): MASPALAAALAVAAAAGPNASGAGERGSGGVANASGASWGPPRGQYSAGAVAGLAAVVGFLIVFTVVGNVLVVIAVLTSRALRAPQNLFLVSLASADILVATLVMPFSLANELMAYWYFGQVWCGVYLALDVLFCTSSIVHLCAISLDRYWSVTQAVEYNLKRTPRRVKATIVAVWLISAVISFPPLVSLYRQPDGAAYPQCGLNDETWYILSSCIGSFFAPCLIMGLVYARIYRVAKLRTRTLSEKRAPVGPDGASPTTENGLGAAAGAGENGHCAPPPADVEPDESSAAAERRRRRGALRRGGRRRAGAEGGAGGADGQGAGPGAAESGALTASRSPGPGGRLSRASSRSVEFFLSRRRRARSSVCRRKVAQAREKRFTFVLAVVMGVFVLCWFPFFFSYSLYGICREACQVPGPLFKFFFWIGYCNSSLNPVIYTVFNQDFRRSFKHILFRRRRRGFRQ

[17] = target: Sodium-dependent dopamine transporter (Homo sapiens) (UniProt Q01959); assay: Binding affinity to DA transporter (unknown origin) at 10 uM by displacement assay relative to control
[18] = target: Histamine H3 receptor (Homo sapiens) (UniProt Q9Y5N1); assay: Binding affinity to histamine H3 receptor (unknown origin) at 10 uM by displacement assay relative to control
[19] = target: Sodium-dependent noradrenaline transporter (Homo sapiens) (UniProt P23975); assay: Binding affinity to NE transporter (unknown origin) at 10 uM by displacement assay relative to control
[20] = target: Sodium-dependent serotonin transporter (Homo sapiens) (UniProt P31645); assay: Binding affinity to 5HT transporter (unknown origin) at 10 uM by displacement assay relative to control
[21] = Dissociation constant, pKa of the compound; format: physicochemical
[22] = Octanol-water distribution coefficient, log D of the compound at pH 7.4; format: physicochemical
[23] = target: Opioid receptor (Rattus norvegicus) (UniProt P33533+P34975+P33535); assay: Displacement of [3H]-naloxone from opioid receptor in rat cerebral cortex at 10 uM relative to control; format: tissue-based
[24] = target: 5-hydroxytryptamine receptor 7 (Homo sapiens) (UniProt P34969); assay: Binding affinity to 5HT-7 receptor (unknown origin) at 10 uM by displacement assay relative to control
[25] = target: 5-hydroxytryptamine receptor 6 (Homo sapiens) (UniProt P50406); assay: Binding affinity to 5HT-6 receptor (unknown origin) at 10 uM by displacement assay relative to control
[26] = target: Histamine H1 receptor (Homo sapiens) (UniProt P35367); assay: Binding affinity to histamine H1 receptor (unknown origin) at 10 uM by displacement assay relative to control
Homo sapiens [27] = species: Homo sapiens; assay: Binding affinity to […] channel (unknown origin) at 10 uM by displacement assay relative to control
Homo sapiens [28] = species: Homo sapiens; assay: Binding affinity to Ca2+ channel (unknown origin) at 10 uM by displacement assay relative to control
Mus musculus [29] = assay: Antiamnesic activity in C57BL6/J mouse assessed as reduction of scopolamine-induced memory deficit at 1 to 23 mg/kg, ip administered 40 mins prior to acquisition trial by two-trial object recognition test; format: functional, organism-based
[30] = Solubility of the compound at pH 7.4; format: physicochemical; conditions: buffer
[31] = Intrinsic clearance in human liver microsomes measured per mg of protein; format: ADME; conditions: read-out: CLH
[32] = target: Muscarinic acetylcholine receptor (Rattus norvegicus) (UniProt P08482+P08483+P08485+P08911+P10980); assay: Displacement of [3H]-QNB from muscarinic receptor in rat cerebral cortex at 10 uM relative to control; format: tissue-based
[33] = target: 5-hydroxytryptamine receptor 1A (Homo sapiens) (UniProt P08908); assay: Binding affinity to 5-HT1a receptor (unknown origin) at 10 uM by displacement assay relative to control
Rattus norvegicus [34] = species: Rattus norvegicus; assay: Displacement of [3H]1,3-di-O-tolylguanidine from sigma-2 receptor in rat cerebral cortex; format: tissue-based; conditions: concentration not given here
[35] = target: Alpha-2B adrenergic receptor (Homo sapiens) (UniProt P18089); assay: Binding affinity to adrenergic alpha-2b receptor (unknown origin) at 10 uM by displacement assay relative to control

Sequence of Sigma non-opioid intracellular receptor 1 (Q99720 whole entry): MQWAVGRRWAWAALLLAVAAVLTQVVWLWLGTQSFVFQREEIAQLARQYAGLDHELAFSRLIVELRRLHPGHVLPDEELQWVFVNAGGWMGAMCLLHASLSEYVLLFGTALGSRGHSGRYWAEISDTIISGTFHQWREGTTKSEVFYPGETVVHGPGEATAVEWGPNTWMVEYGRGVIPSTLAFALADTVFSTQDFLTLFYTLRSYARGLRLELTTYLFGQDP
Sequence of 5-hydroxytryptamine receptor 2A (Homo sapiens) (P28223 whole entry): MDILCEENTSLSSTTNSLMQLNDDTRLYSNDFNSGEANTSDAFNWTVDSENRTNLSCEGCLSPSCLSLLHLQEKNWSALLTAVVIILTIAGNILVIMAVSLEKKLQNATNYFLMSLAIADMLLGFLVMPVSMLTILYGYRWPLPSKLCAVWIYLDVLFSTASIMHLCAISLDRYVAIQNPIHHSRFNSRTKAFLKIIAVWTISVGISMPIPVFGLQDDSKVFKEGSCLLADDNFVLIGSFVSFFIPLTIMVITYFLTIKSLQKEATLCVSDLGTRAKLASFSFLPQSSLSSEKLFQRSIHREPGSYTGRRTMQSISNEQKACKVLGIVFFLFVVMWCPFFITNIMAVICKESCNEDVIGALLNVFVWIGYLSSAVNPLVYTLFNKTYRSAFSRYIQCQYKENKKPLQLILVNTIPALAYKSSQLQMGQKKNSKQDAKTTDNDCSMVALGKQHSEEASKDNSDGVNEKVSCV
Sequence of Mu-type opioid receptor (Homo sapiens) (P35372 whole entry): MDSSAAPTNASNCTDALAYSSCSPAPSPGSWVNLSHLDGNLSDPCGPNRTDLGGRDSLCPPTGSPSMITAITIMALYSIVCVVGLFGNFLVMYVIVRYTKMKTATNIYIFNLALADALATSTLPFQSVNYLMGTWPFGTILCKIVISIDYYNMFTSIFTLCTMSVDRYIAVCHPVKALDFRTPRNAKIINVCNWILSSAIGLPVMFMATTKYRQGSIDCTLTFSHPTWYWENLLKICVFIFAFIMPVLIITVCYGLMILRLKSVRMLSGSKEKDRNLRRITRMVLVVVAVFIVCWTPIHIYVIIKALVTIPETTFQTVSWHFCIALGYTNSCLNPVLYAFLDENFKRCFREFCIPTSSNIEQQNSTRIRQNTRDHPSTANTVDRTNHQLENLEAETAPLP
Sequence of D(4) dopamine receptor (Homo sapiens) (P21917 whole entry): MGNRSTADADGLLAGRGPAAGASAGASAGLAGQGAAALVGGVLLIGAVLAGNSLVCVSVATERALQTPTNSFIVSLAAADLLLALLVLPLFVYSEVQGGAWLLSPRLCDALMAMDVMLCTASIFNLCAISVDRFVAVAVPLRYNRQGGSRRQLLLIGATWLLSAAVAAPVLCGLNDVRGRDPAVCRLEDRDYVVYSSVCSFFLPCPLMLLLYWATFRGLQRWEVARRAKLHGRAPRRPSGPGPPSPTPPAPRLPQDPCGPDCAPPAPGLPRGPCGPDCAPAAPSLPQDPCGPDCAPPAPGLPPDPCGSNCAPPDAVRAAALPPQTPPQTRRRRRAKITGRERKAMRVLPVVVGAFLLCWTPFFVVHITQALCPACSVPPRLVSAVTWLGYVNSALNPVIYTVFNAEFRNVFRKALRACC
Sequence of Sodium-dependent dopamine transporter (Homo sapiens) (Q01959 whole entry): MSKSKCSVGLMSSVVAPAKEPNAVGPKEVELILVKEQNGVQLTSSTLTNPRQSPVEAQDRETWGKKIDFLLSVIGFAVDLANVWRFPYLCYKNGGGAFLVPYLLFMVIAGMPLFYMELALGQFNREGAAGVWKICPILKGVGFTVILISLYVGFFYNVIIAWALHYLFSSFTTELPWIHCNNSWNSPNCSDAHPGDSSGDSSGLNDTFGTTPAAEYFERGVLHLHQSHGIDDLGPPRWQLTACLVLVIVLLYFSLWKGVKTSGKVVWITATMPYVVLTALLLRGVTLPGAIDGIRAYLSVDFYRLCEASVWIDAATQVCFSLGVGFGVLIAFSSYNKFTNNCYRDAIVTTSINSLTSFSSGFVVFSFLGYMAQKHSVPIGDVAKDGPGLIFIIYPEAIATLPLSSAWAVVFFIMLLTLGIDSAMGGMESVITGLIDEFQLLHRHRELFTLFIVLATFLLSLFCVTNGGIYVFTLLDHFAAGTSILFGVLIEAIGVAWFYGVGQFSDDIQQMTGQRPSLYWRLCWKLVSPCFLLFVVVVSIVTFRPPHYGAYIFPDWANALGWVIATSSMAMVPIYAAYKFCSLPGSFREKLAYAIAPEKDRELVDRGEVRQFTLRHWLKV
Sequence of Kappa-type opioid receptor (Homo sapiens) (P41145 whole entry): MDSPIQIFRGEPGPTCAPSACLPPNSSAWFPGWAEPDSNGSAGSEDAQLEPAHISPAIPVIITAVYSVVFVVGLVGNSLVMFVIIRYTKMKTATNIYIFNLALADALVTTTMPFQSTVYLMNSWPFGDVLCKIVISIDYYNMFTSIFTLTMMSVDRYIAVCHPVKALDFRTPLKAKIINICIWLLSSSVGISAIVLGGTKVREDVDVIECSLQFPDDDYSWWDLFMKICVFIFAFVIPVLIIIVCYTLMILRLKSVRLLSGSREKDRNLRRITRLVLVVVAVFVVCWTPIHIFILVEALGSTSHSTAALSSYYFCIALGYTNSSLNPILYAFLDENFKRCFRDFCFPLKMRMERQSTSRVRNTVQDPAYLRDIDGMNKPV
Sequence of Sodium-dependent noradrenaline transporter (Homo sapiens) (P23975 whole entry): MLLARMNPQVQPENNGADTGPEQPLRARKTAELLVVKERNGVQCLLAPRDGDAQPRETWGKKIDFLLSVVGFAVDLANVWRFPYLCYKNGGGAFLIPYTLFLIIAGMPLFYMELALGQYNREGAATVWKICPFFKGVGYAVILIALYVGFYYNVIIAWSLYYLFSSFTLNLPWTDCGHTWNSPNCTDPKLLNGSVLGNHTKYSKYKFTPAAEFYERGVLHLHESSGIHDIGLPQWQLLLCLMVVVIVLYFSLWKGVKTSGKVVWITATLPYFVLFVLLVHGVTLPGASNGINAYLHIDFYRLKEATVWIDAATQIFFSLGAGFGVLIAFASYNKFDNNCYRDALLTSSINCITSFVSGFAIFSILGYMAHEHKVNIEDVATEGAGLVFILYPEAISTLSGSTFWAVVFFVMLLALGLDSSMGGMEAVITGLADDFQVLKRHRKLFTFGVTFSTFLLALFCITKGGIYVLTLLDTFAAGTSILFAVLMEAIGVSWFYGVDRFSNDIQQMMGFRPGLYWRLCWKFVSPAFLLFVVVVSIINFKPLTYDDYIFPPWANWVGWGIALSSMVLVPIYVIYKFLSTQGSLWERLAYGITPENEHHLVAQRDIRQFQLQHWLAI
Sequence of Histamine H1 receptor (Homo sapiens) (P35367 whole entry): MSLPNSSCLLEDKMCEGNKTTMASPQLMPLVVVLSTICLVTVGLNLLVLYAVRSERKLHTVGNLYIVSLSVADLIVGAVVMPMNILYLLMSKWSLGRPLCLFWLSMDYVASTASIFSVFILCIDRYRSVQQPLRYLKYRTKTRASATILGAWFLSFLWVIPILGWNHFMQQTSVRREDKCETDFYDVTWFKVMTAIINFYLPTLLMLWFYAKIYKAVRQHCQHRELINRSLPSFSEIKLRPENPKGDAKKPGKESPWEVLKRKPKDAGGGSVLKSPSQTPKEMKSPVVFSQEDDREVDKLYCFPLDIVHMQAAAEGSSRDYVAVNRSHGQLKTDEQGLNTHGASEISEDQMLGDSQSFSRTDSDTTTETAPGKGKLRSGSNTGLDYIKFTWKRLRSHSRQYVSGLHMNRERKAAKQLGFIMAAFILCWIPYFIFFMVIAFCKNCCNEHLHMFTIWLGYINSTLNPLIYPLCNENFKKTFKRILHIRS
Sequence of Histamine H3 receptor (Homo sapiens) (Q9Y5N1 whole entry): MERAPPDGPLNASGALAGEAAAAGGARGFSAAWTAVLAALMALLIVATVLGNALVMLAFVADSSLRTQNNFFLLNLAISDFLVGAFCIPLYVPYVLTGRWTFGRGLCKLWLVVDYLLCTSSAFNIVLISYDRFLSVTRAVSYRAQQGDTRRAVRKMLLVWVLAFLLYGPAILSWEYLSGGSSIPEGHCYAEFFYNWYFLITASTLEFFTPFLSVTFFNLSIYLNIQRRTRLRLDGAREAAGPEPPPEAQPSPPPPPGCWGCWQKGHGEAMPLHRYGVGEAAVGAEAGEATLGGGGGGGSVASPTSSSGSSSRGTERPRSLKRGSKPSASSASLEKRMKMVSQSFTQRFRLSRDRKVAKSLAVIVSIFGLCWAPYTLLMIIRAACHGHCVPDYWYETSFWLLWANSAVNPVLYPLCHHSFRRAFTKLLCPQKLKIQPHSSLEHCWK
Sequence of Acetylcholinesterase (Homo sapiens) (P22303 whole entry): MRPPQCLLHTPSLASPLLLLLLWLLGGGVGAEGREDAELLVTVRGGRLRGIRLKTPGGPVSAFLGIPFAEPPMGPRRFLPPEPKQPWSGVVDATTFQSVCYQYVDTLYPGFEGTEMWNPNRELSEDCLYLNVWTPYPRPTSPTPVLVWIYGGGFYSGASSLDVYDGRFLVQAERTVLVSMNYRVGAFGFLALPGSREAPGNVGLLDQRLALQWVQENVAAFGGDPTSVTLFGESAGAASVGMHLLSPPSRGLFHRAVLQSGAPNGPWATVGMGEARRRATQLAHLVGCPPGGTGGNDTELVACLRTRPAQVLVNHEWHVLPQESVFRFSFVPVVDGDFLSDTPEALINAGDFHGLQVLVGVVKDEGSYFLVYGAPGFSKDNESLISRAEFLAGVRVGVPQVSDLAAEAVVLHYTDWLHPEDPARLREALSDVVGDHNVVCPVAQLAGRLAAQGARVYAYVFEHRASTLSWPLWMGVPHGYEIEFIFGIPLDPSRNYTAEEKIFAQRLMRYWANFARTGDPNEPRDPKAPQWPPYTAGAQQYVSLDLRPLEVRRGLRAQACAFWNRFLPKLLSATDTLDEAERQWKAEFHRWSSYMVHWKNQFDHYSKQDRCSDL

Structure (SMILES)	Ki [2] [nM]	microsomal CLint [5] [µL/min/mg]	inhibition [11] [%]	pKa [21]	logD ([22]; read-out: logD)	further results
C=CCN1CC[C@]2(C)c3cc(O)ccc3C[C@@H]1[C@@H]2C	158	313	–	–	–	inhibition (Rattus norvegicus [1]): 29%; Papp A→B at 3 h, 20 µM [3]: 20.2 ×10⁻⁶ cm/s; inhibition [4]: 50%; inhibition [6]: 50%; Kp at 40 min [7]: 5.64; microsomal CLint [8]: 17 µL/min/mg; inhibition [9]: > 90%; Activity (Mus musculus [10]): Active
COc1ccc(CCN2CCN(CCCc3ccccc3)CC2)cc1OC	–	–	50	–	–	inhibition [12]: 50%; inhibition (Rattus norvegicus [1]): 99%; inhibition [13]: 50%; inhibition [14]: > 90%; inhibition [15]: 50%; inhibition [16]: 50%; inhibition [17]: 50%; inhibition [18]: 50%; inhibition [19]: > 90%; inhibition [20]: 50%
O=C(NC1CCC(N2CCCCC2)CC1)[C@H]1C[C@@H]1c1ccccc1 (mixture of isomers)	1260	–	–	9.6	0.9	–
O=C(NCCCNC1CCCCC1)[C@H]1C[C@@H]1c1ccccc1 (racemic) [listing 1 of 2 here]	200	–	–	10.1	–	logD [22]: 1.3
CCN(CC)CCNC(=O)[C@H]1C[C@@H]1c1ccccc1 (racemic)	126	–	50	8.9	0.6	inhibition [23]: > 90%
CC(C)N(CCNC(=O)[C@H]1C[C@@H]1c1ccccc1)C(C)C (racemic)	63.1	> 300	50	9.7	1	–
O=C(NCCN1CCCC1)[C@H]1C[C@@H]1c1ccccc1 (racemic)	63.1	–	> 90	9.2	0.9	–
CN(C)CC(C)(C)CNC(=O)[C@H]1C[C@@H]1c1ccccc1 (racemic)	398	–	–	8.9	0.8	–
O=C(NCCN1CCN(Cc2ccccc2)CC1)[C@H]1C[C@@H]1c1ccccc1 (racemic)	15.8	122	50	–	2.8	inhibition [13]: > 90%; inhibition [17]: 50%; inhibition [24]: 50%; inhibition [6]: 50%; inhibition [19]: 50%; inhibition [25]: 50%; inhibition [9]: 50%
O=C(NCCN1CCN(Cc2ccc(Cl)c(Cl)c2)CC1)[C@H]1C[C@@H]1c1ccccc1 (racemic)	10	200	> 90	–	> 4	inhibition [26]: 50%; inhibition (Homo sapiens [27]): 50%
O=C(NCCN1CCN(Cc2c(F)cccc2Cl)CC1)[C@H]1C[C@@H]1c1ccccc1 (racemic)	25.1	283	–	–	3.7	–
O=C(NCCN1CCN(C(=O)c2c(F)cccc2Cl)CC1)[C@H]1C[C@@H]1c1ccccc1 (racemic)	631	81	> 90	–	2.3	–
O=C(NCCCN1CCN(Cc2c(F)cccc2Cl)CC1)[C@H]1C[C@@H]1c1ccccc1 (racemic)	25.1	305	> 90	–	3.5	inhibition [14]: 50%; inhibition [26]: 50%; inhibition [16]: 50%; inhibition (Homo sapiens [28]): > 90%
O=C([C@H]1C[C@@H]1c1ccccc1)N1CCN(c2ccccc2)CC1 (racemic)	1260	–	–	< 2.5	3.8	–
O=C([C@H]1C[C@@H]1c1ccccc1)N1CCC(N2CCCC2)CC1 (racemic)	200	25	–	9.3	0.7	–
O=C([C@H]1C[C@@H]1c1ccccc1)N1CCC(N2CCCCC2)CC1 (racemic)	79.4	32	–	9.3	1.1	inhibition (Rattus norvegicus [1]): 50%; Papp A→B at 3 h, 20 µM [3]: 16.6 ×10⁻⁶ cm/s; inhibition [18]: 50%; Activity (Mus musculus [29]): Active; solubility [30]: 1100 µg/mL (≈ 3.52 mM); Kp at 40 min [7]: 13.5; microsomal CLint [31]: 56 µL/min/mg; inhibition (Homo sapiens [28]): 50%; microsomal CLint [8]: 50 µL/min/mg
O=C([C@H]1C[C@@H]1c1ccc(F)cc1)N1CCC(N2CCCCC2)CC1 (racemic)	100	–	–	–	–	inhibition (Rattus norvegicus [1]): 61%
O=C([C@H]1C[C@@H]1c1ccc(F)cc1)N1CCC(CNCC2CCCCC2)CC1 (racemic)	79.4	17	–	–	–	inhibition (Homo sapiens [27]): 50%; inhibition [32]: 50%; inhibition [33]: 50%
O=C(NCCCNC1CCCCC1)[C@H]1C[C@@H]1c1ccccc1 (racemic) [listing 2 of 2 here]	–	–	50	–	–	inhibition [14]: 50%; inhibition (Homo sapiens [28]): > 90%
O=C(NCCCNC1CCCCC1)[C@H]1C[C@@H]1c1ccccc1 (stereo in doubt; (+)-1) [listing 1 of 2 here]	158	147	–	–	–	–
O=C(NCCCNC1CCCCC1)[C@H]1C[C@@H]1c1ccccc1 (stereo in doubt; (+)-1) [listing 2 of 2 here]	–	–	> 90	–	–	inhibition [14]: 50%; inhibition [16]: 50%; inhibition (Homo sapiens [27]): 50%; inhibition (Rattus norvegicus [34]): 6.6%; inhibition (Homo sapiens [28]): 50%; inhibition [35]: 50%
O=C(NCCCNC1CCCCC1)[C@H]1C[C@@H]1c1ccccc1 (stereo in doubt; (-)-1) [listing 1 of 2 here]	158	–	–	–	1.1	–
O=C(NCCCNC1CCCCC1)[C@H]1C[C@@H]1c1ccccc1 (stereo in doubt; (-)-1) [listing 2 of 2 here]	–	–	–	–	–	inhibition (Homo sapiens [27]): 50%
